COc1c(NS(=O)(=O)c2ccc(F)cc2)cc(-c2ccc3nccc(N4CCOCC4)c3c2)cc1C(N)=O
solubility (mole fraction)
Conditions	288.15 K	293.15 K	298.15 K	303.15 K	308.15 K	313.15 K	318.15 K	323.15 K	328.15 K
in acetone	0.000608	0.000638	0.000704	0.000817	0.000941	0.00102	0.00115	–	–
in chloroform	5.21e-05	5.44e-05	5.86e-05	6.66e-05	7.72e-05	9.58e-05	0.000121	0.000149	0.000188
in ethyl acetate	9.85e-05	0.000115	0.000127	0.000138	0.00016	0.000182	0.000187	0.000183	0.000183
in methanol	0.000259	0.000298	0.000338	0.000398	0.000473	0.000518	0.000666	0.000829	0.000977
in toluene	5.82e-06	6.02e-06	6.59e-06	7.29e-06	7.86e-06	9.04e-06	1.03e-05	1.23e-05	1.4e-05
in water	3.54e-07	5.68e-07	7.36e-07	8.18e-07	9.22e-07	1.08e-06	1.28e-06	1.47e-06	1.75e-06

COc1c(NS(=O)(=O)c2ccc(F)cc2)cc(-c2ccc3ncnc(N4CCOCC4)c3c2)cc1C(N)=O
solubility (mole fraction)
Conditions	288.15 K	293.15 K	298.15 K	303.15 K	308.15 K	313.15 K	318.15 K	323.15 K	328.15 K
in acetone	0.000317	0.000317	0.000352	0.000419	0.000459	0.000526	0.000592	–	–
in chloroform	0.000145	0.000158	0.000165	0.000188	0.000223	0.000258	0.000303	0.00039	0.000495
in ethyl acetate	9.51e-05	0.000101	0.000114	0.000128	0.00015	0.000171	0.000196	0.00022	0.000239
in methanol	0.000238	0.000301	0.00043	0.000428	0.000613	0.00078	0.00102	0.00105	0.00125
in toluene	1.05e-05	1.05e-05	1.05e-05	1.13e-05	1.31e-05	1.53e-05	1.67e-05	1.83e-05	2.14e-05
in water	5.21e-07	8.05e-07	9.14e-07	1.05e-06	1.16e-06	1.37e-06	1.5e-06	1.98e-06	2.44e-06

COc1c(NS(=O)(=O)c2ccc(C)cc2)cc(-c2ccc3ncnc(N4CCOCC4)c3c2)cc1C(N)=O
solubility (mole fraction)
Conditions	288.15 K	293.15 K	298.15 K	303.15 K	308.15 K	313.15 K	318.15 K	323.15 K	328.15 K
in acetone	0.000635	0.000707	0.000798	0.001	0.00115	0.00141	0.00185	–	–
in chloroform	0.0027	0.00314	0.00346	0.00398	0.00466	0.00547	0.00637	0.00717	0.00767
in ethyl acetate	0.000286	0.000294	0.000302	0.000329	0.000357	0.000412	0.00045	0.000535	0.000656
in methanol	0.000832	0.000873	0.000919	0.00105	0.00123	0.00151	0.00183	0.00217	0.00267
in toluene	2.41e-05	2.9e-05	3.32e-05	3.98e-05	4.9e-05	5.89e-05	7.91e-05	0.000104	0.00013
in water	8.31e-07	1.19e-06	1.62e-06	2.07e-06	2.53e-06	2.91e-06	3.2e-06	3.47e-06	3.75e-06
